Assay results taken from patent US20090099167A1, “Organic compounds” (Novartis Institutes for Biomedical Research, priority 2004, published 2009).
Read-outs that look alike come from different tables or passages of the source.

Assays:
[1] = biological target: T1, human insulin receptor (Ins-R) (Homo sapiens, UniProt P06213); test: Ins-R tyrosine kinase assay, GST-Ins-R; format: biochemical
T1 construct: encoding the amino acid region 919-1343 of the intra-cytoplasmic kinase domain of the human insulin receptor; made in house; host or cells: baculovirus (Bac-to-Bac)

[2] = biological target: T2, human VEGF-R2 receptor (KDR) (Homo sapiens, UniProt P35968); test: VEGF-induced KDR autophosphorylation in transfected CHO cells, sandwich ELISA; format: cell-based; conditions: Table 4; read-out: KDR, activity (IC50 for kinase inhibition)
T2 construct: expressed in transfected cells; host or cells: CHO cells

[3] = biological target: c-Src kinase (Homo sapiens, UniProt P12931); test: c-Src kinase inhibition; format: biochemical; conditions: Table 5; read-out: c-scr, IC50 class
From the text: An appropriate assay is described in Andrejauskas-Buchdunger et al., Cancer Res. 52, 5353-8 (1992).

[4] = biological target: T3, Tek (Homo sapiens, UniProt Q02763); test: Tek kinase inhibition, GST-fused kinase domain; format: biochemical; conditions: Table 5; read-out: Tek, IC50 class
T3 construct: N-terminally GST-fused (pAcG1, Pharmingen) KDR, Flt-1, Flk-1, Tek and PDGFR-β kinase domains are obtained from ProQinase, Freiburg, Germany; host or cells: Sf9 or High Five (baculovirus)
From the text: The inhibition of IGF-1R and Ins-R can be determined as follows: The baculovirus donor vector pfbgx3IGFIRcd is used to generate a recombinant baculovirus that expresses the amino acid region 950-1337 of the mature peptide cytoplasmic domain of the human IGF-IR. To generate the cDNA fragment encoding the amino acid region 919-1343 of the intra-cytoplasmic kinase domain of the human insulin receptor, pC5hInsR is used. The fragments of the human IGF-IR and Ins-R are cloned, expressed and small-scale purified as a factor Xa-cleavable glutathione-S-transferase (GST)-fusion protein using the Bac-to-Bac™ system (GIBCO BRL) of recombinant baculovirus generation. Virus containing media is collected from the transfected cell culture and used for infection to increase its titer. Virus containing media obtained after two rounds of infection is used for large-scale protein expression. Cell extracts are prepared and loaded onto a glutathione-Sepharose (Pharmacia) column. After washing, the GST-tagged proteins are then eluted with a glutathione-containing buffer. Purified protein is stored at −70° C. in elution buffer. Tyrosine protein kinase assays with purified GST-IGF-1R and GST-ins-R are carried in a final volume of 30 μl containing 20 mM Tris-HCl, pH 7.6, 10 mM MgCl2, 0.01 mM Na3VO4, 1% DMSO, 1 mM DTT, 3 μg/ml poly(Glu,Tyr) 4:1 and 10 μM ATP (γ-[^33P]-ATP 0.1 μCi). The assay is performed in 96-well plates at ambient temperature for 20 min and terminated by addition of 25 μl 0.05 M EDTA pH 7.0. An aliquot of 40 μl is spotted with a multichannel dispenser on Whatman P81 membranes mounted in a Millipore Microtiter filter manifold connected to a low vacuum source. After elimination of liquid, the membrane is transferred to a sequence of 4 washing baths containing 0.5% H3PO4 and one with EtOH (shaking incubation for 10 min each), dried, mounted onto a Hewlett Packard TopCount manifold added 10 μl Microscint® and counted. Compounds of formula (I) show up to 90% inhibition of Ins-R at 10,000 nM, preferably between 60-90% inhibition. The inhibition of Tek can be determined as follows: The procedure of the expression, purification and assay these kinases has been described. Fabbro et al., Pharmacol. Ther. 82(2-3) 293-301 (1999). In brief, the glutathione S-transferase (GST) gene from the pAcG1 vector (Pharmingen) is excised with EcoRV and EcoRI and inserted into the cloning site of the Fast-Bac baculoviral vector (GIBCO) creating a 5530 bp vector with N-terminal cloning sites derived from the pAcG1 fusion vector (FBG0). The C-terminal cloning site may be any cloning site (from the Fast-Bac vector) downstream of the N-terminal cloning site used. N-terminally GST-fused (pAcG1, Pharmingen) KDR, Flt-1, Flk-1, Tek and PDGFR-β kinase domains are obtained from ProQinase, Freiburg, Germany. Tek is recloned into the FBG1 vector by EcoRI excision and ligation into EcoRI digested FBG1 (FBG1-Tek). The coding sequences for the whole cytoplasmic domain of c-Kit (aa 544-976) and c-Fms (aa 538-972) are amplified by PCR from human uterus and from human bone marrow cDNA libraries (Clontech), respectively. The amplified DNA fragments are fused to GST by cloning them into FBG1 as BamHI-EcoRI insertions, to yield FBG1-c-Kit and FBG1-c-Fms. Tek is recloned into the FBG0 transfer vector by EcoRI excision and ligation into EcoRI digested FBG0 (FBG-Tie2/Tek). FGFR-1 and c-met kinase domains are obtained by PCR from human A431 cells. N-terminal primers contain an overhanging EcoRI site, while C-terminal primers contain a XhoI site to aid cloning into the transfer vectors. After digestion of both the PCR fragments and FBG0 the cleavage products are gel-purified and ligated together to form the kinase constructs (FBG-Met, FBG-FGFR-1).
Viruses for each of the kinases are made according to the protocol supplied by GIBCO. […]

[5] = Table 5, read-out: Ins-R, IC50 class

T3 sequence (Q02763 824-1096 limits assumed, species assumed): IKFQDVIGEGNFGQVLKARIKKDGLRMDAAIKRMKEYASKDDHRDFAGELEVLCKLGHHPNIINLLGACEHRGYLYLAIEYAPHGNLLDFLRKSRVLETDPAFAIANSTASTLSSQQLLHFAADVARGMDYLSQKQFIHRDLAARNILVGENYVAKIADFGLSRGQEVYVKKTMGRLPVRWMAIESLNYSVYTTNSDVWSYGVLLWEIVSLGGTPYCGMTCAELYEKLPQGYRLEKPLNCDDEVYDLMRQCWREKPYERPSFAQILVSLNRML
c-Src kinase, sequence (P12931 whole entry): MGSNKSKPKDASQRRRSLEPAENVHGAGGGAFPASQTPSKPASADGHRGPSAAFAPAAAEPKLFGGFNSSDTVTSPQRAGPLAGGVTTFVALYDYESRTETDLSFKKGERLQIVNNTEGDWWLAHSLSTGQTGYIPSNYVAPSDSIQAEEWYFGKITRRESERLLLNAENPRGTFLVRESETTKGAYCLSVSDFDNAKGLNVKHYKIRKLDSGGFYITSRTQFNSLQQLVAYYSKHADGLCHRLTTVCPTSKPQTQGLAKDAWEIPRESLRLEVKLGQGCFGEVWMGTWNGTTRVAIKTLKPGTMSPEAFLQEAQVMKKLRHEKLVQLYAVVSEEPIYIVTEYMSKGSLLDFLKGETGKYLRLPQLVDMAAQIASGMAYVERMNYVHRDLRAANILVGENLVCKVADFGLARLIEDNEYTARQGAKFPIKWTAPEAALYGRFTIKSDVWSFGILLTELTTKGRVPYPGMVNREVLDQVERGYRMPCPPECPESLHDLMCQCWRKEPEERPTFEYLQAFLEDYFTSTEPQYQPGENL
T1 sequence (P06213 958-1382 limits assumed): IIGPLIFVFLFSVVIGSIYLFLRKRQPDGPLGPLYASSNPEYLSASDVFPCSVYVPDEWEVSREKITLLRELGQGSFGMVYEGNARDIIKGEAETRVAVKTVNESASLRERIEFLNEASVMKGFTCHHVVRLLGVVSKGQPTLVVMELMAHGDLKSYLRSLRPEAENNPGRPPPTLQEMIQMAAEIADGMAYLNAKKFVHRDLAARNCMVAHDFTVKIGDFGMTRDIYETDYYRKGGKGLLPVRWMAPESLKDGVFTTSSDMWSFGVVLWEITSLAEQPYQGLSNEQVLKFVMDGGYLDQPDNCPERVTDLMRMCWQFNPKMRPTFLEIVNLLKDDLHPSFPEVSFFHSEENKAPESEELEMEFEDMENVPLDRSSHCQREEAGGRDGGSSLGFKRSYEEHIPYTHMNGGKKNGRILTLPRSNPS
T2 sequence (P35968 20-1356): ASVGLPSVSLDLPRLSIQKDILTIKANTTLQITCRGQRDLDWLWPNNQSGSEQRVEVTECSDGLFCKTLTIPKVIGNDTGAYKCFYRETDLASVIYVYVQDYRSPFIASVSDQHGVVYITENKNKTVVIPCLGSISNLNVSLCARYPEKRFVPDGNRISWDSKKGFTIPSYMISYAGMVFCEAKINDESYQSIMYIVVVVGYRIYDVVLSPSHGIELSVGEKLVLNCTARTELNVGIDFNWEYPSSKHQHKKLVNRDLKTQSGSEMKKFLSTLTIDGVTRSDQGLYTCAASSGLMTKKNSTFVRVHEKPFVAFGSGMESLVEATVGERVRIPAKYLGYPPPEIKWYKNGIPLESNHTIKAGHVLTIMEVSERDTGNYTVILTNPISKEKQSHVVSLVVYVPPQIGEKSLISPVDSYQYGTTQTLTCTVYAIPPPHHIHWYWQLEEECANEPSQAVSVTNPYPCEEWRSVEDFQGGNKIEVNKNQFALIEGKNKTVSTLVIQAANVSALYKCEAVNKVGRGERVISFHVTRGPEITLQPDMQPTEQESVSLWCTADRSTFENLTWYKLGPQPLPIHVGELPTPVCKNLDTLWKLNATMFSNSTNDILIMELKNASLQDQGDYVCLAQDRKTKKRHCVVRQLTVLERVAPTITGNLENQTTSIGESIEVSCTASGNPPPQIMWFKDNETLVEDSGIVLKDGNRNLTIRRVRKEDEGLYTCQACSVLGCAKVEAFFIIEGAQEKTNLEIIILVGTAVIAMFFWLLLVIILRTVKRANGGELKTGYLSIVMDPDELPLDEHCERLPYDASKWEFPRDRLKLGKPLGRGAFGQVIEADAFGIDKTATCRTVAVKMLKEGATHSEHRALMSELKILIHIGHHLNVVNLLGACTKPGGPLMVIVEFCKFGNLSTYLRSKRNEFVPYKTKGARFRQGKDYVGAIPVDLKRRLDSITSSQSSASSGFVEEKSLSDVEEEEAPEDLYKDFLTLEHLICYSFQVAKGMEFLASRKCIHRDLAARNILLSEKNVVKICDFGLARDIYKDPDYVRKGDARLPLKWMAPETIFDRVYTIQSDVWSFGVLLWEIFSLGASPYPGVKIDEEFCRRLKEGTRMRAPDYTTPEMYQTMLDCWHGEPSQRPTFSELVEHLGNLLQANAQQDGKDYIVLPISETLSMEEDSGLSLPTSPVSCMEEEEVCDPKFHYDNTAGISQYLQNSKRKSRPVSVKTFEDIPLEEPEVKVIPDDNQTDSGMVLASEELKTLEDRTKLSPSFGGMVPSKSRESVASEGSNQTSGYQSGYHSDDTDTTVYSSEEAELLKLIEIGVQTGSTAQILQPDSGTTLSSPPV

Row | SMILES | IC50 ([1]; Table 4, read-out: Ins-R, activity (IC50 for kinase inhibition)) | IC50 [2] | IC50 [3] | IC50 [1, 5] | IC50 [4] | melting point
1 | CN1CCN(c2ccc(-c3cnn4c(N)c(-c5cccc(O)c5)cnc34)cc2)CC1 [Example 1, 3-{7-Amino-3-[4-(4-methyl-piperazin-1-yl)-phenyl]-pyrazolo[1,5-a]pyrimidin-6-yl}-phenol] | < 10 µM | < 10 µM | – | – | – | –
2 | CN1CCN(c2cccc(-c3cnn4c(N)c(-c5cccc(O)c5)cnc34)c2)CC1 [Example 29, 3-{7-Amino-3-[3-(4-methyl-piperazin-1-yl)-phenyl]-pyrazolo[1,5-a]pyrimidin-6-yl}-phenol] | – | < 10 µM | – | – | – | –
3 | Cc1nc2c(-c3ccc(N4CCN(C)CC4)cc3)cnn2c(N)c1-c1ccc(F)c(Cl)c1 [Example 83, 6-(3-Chloro-4-fluoro-phenyl)-5-methyl-3-[4-(4-methyl-piperazin-1-yl)-phenyl]-pyrazolo[1,5-a]pyrimidin-7-ylamine] | – | – | < 1000 nM | > 10 µM | > 10 µM | 264 to 265 °C

Continued, values first:

Row | IC50 ([1]; Table 4, read-out: Ins-R, activity (IC50 for kinase inhibition)) | IC50 [2] | IC50 [3] | IC50 [1, 5] | IC50 [4] | melting point | SMILES
4 | – | < 10 µM | – | – | – | – | Nc1c(-c2cccc(O)c2)cnc2c(-c3cccnc3)cnn12 [Example 46, 3-[7-Amino-3-pyridin-3-yl-pyrazolo[1,5-a]pyrimidin-6-yl]-phenol]
5 | – | – | < 1000 nM | > 10 µM | > 10 µM | 171 to 172 °C | COc1ccc(-c2cnn3c(N)c(-c4cccc(Cl)c4)c(C)nc23)cc1 [Example 88, 6-(3-Chloro-phenyl)-3-(4-methoxy-phenyl)-5-methyl-pyrazolo[1,5-a]pyrimidin-7-ylamine]
6 | – | – | < 1000 nM | > 10 µM | 1 to 10 µM | 108 to 116 °C | Cc1nc2c(-c3cccc(N4CCN(CCO)CC4)c3)cnn2c(N)c1-c1cccc(Cl)c1 [Example 90, 2-(4-{3-[7-Amino-6-(3-chloro-phenyl)-5-methyl-pyrazolo[1,5-a]pyrimidin-3-yl]-phenyl}-piperazin-1-yl)-ethanol]
